From publication PMC8400246, “Antimicrobial Activity and Action Mechanisms of Arg-Rich Short Analog Peptides Designed from the C-Terminal Loop Region of American Oyster Defensin (AOD)” (Marine Drugs, 2021)
Positions of bridges follow the written chain, without caps; N, C: chain ends. Residues, ends and D or L forms follow the SMILES beside them.

Key:
[1] = test system: B. subtilis KCTC1021; test: Ultrasensitive radial diffusion assay (URDA), MEC; type: cell-based, Bacillus subtilis; conditions: B. subtilis KCTC1021, Gram +, 10 mM phosphate buffer pH 6.6, 37 °C, X-intercept of clearing zone vs log10 concentration, triplicate, averaged
Protocol: (§1) The antimicrobial activity of the AOD analogs was assessed with an ultrasensitive radial diffusion assay (URDA), as described previously. The antimicrobial activity of the analogs (from 31.3 to 1000 μg/mL, 5 μL volume) was tested against several bacteria, including Bacillus subtilis KCTC1021, Streptococcus mutans KCCM40105, Aeromonas hydrophila KCTC2358, Escherichia coli D31, E. coli ML35p, Pseudomonas aeruginosa KCTC2004, Salmonella enterica KCTC2514, and Shigella sonnei KCTC2009. In addition, Cutibacterium acnes KCTC3314, Staphylococcus epidermidis KCTC1917, and Candida albicans KCTC7965 were used for the anti-acne activity test. All except C. acnes KCTC3314 were grown overnight for 18 h in tryptic soy broth (TSB; for bacteria) or Sabouraud dextrose broth (SDB; for C. albicans) at the appropriate temperature (25 °C for A. hydrophila, 37 °C for the others). C. acnes was grown for 72 h in reinforced clostridial medium (RCM) under anaerobic conditions with an anaerobic gas-generating pouch (GasPak EZ; Becton Dickinson and Company, Sparks, MD, USA) at 37 °C. Following overnight or 72-h incubation, the bacterial and C. albicans suspensions were diluted to a McFarland turbidity standard level of 0.5 (Vitek Colorimeter #52-1210; Hach, Loveland, CO, USA) corresponding to approximately 10^8 colony forming units (CFU)/mL for bacteria and 10^6 CFU/mL for C. albicans. Diluted bacterial or C. albicans suspension (0.5 mL) was added to 9.5 mL underlay gel containing 5 × 10^6 or 5 × 10^4 CFU/mL in 10 mM phosphate buffer (pH 6.6) with 0.03% TSB (or RCM) or 0.03% SDB and 1% Type I low-electroendosmosis agarose. The AOD analogs were serially diluted two-fold in 5 µL acidified water (0.01% acetic acid; HAc) and each dilution was added to 2.5-mm diameter wells in the 1-mm thick underlay gel. After incubation for 3 h at either 25 °C (for A. hydrophila) or 37 °C (for the others), the bacterial or yeast suspension was overlaid with 10 mL double-strength overlay gel containing 6% TSB, RCM, or SDB with 10 mM phosphate buffer (pH 6.6) in 1% agarose. Plates were incubated for an additional 18–24 h (72 h for C. acnes) and the clearing zone diameters were measured. After subtracting the diameter of the well (2.5 mm), the clearing zone diameter was expressed in units (0.1 mm = 1 U).
(§2) The minimal effective concentration (MEC; μg/mL) of the AOD analogs was calculated as the X-intercept of a plot of clearing zone diameter units against the log10 of the peptide concentration. Piscidin 1, an α-helical AMP isolated from hybrid striped bass (Morone saxatilis × Morone chrysops) was used as a positive control.

[2] = test system: S. sonnei KCTC2009; test: Ultrasensitive radial diffusion assay (URDA), MEC; type: cell-based, Shigella sonnei; conditions: S. sonnei KCTC2009, Gram -, pH 6.6, 37 °C, triplicate, averaged
Protocol: as §1, §2

[3] = test system: C. albicans KCTC7965; test: Ultrasensitive radial diffusion assay (URDA), MEC; type: cell-based, Candida albicans; conditions: C. albicans KCTC7965, yeast, SDB, pH 6.6, 37 °C, triplicate, averaged
Protocol: as §1, §2

[4] = test system: S. epidermidis KCTC1917; test: Ultrasensitive radial diffusion assay (URDA), MEC; type: cell-based, Staphylococcus epidermidis; conditions: S. epidermidis KCTC1917, Gram +, pH 6.6, 37 °C, triplicate, averaged
Protocol: as §1, §2

[5] = test system: S. enterica KCTC2514; test: Ultrasensitive radial diffusion assay (URDA), MEC; type: cell-based, Salmonella enterica; conditions: S. enterica KCTC2514, Gram -, pH 6.6, 37 °C, triplicate, averaged
Protocol: as §1, §2

[6] = test system: 100-bp DNA ladder; test: DNA binding assay (electrophoretic mobility shift); conditions: 1 μg analog with 0.2 μg 100-bp DNA ladder, 37 °C, 60 min, 1.8% agarose gel with EtBr
Protocol: To evaluate the binding ability of the AOD analogs to intracellular components, a DNA binding assay was performed as previously described with minor modifications. The DNA-binding ability of the AOD analogs was assessed through observation of the inhibition of migration of DNA bands through agarose gels. A commercial 100-bp DNA ladder (0.2 μg) (Bioneer Corp., Daejeon, South Korea) was mixed with each analog (1 μg) in 0.01% acetic acid, and the resulting mixture was incubated at 37 °C for 60 min and then electrophoresed on 1.8% agarose gels containing 0.5 μg/mL ethidium bromide (EtBr). HAc (0.01%) was used as a negative control.
To determine the concentration required for the interaction of AOD analogs with DNA, a DNA binding assay was performed with various mixing ratios of analog A3 (0.25–1.0 μg/mL) and 100-bp DNA ladder (0.1–0.4 μg), as described above.

[7] = test system: C. acnes KCTC3314; test: Ultrasensitive radial diffusion assay (URDA), MEC; type: cell-based, Cutibacterium acnes; conditions: C. acnes KCTC3314, Gram +, anaerobic, RCM, 72 h, 37 °C, triplicate, averaged
Protocol: as §1, §2

[8] = test system: S. mutans KCCM40105; test: Ultrasensitive radial diffusion assay (URDA), MEC; type: cell-based, Streptococcus mutans; conditions: S. mutans KCCM40105, Gram +, pH 6.6, 37 °C, triplicate, averaged
Protocol: as §1, §2

[9] = test system: E. coli DH5α genomic DNA (16S ribosomal gene); test: DNA amplification (PCR) inhibition assay; type: biochemical, Escherichia coli; conditions: 1.5 µg of each analog, 0.2 µg E. coli DH5α gDNA, 30 cycles
Protocol: To determine whether AOD analogs target DNA amplification, the ability of the analogs to inhibit DNA amplification was assessed using E. coli DH5α genomic DNA (gDNA). Total gDNA was extracted using the phenol–chloroform method, as described previously. To assess the inhibition of DNA amplification, 1.5 µg AOD analog was added to the polymerase chain reaction (PCR) mixture. The PCR solution consisted of 0.2 µg purified gDNA, 5 µL 10× PCR buffer with MgCl2, 4 µL of each dNTP at 2.5 mM, 0.25 μL Ex Taq polymerase (Takara Bio, Shiga, Japan), 2.0 pmol each of primers 27F (5′-[…]-3′) and 1492R (5′-TACGGCTACCTTGTTACGA-CTT-3′), and up to 50 µL sterile distilled water. The PCR thermal cycling conditions were as follows: initial denaturation at 94 °C for 5 min; 30 cycles of 94 °C for 30 s, 55 °C for 30 s, and 72 °C for 2 min; and a final extension for 10 min at 72 °C. PCR was conducted using a Type 9700 Thermal Cycler (Perkin-Elmer, Norwalk City, CA, USA). The PCR products were confirmed through 1.5% agarose gel electrophoresis with 0.5 μg/mL EtBr. Piscidin 1 was used as a positive control and 0.01% HAc was used as a negative control.

[10] = test system: A. hydrophila KCTC2358; test: Ultrasensitive radial diffusion assay (URDA), MEC; type: cell-based, Aeromonas hydrophila; conditions: A. hydrophila KCTC2358, Gram -, pH 6.6, 25 °C, triplicate, averaged
Protocol: as §1, §2

[11] = test system: E. coli ML35p; test: Ultrasensitive radial diffusion assay (URDA), MEC; type: cell-based, Escherichia coli; conditions: Gram -, pH 6.6, 37 °C, triplicate, averaged
Protocol: as §1, §2

[12] = test system: E. coli D31; test: Ultrasensitive radial diffusion assay (URDA), MEC; type: cell-based, Escherichia coli; conditions: E. coli D31, Gram -, pH 6.6, 37 °C, triplicate, averaged
Protocol: as §1, §2

[13] = test system: 100-bp DNA ladder and DNA polymerase; test: Competitive binding between DNA and DNA polymerase; conditions: 1 μg peptide, 0.2 μg 100-bp DNA ladder, DNA polymerase 1.0 μL (5 units/μL), 37 °C, 60 min
Protocol: To assess the preferential binding ability of the AOD analogs to DNA or DNA polymerase, a competitive binding assay was performed. Briefly, AOD analog was added to a reaction mixture containing DNA or DNA polymerase and incubated for 60 min at 37 °C. […] Piscidin 1 and 0.01% HAc were the positive and negative controls, respectively.

[14] = test system: P. aeruginosa KCTC2004; test: Ultrasensitive radial diffusion assay (URDA), MEC; type: cell-based, Pseudomonas aeruginosa; conditions: P. aeruginosa KCTC2004, Gram -, pH 6.6, 37 °C, triplicate, averaged
Protocol: as §1, §2

[15] = test system: tested strains (bacteria and the yeast C. albicans); test: URDA, overall antimicrobial activity; type: cell-based; conditions: all tested strains
Protocol: The antimicrobial activity of the AOD analogs was assessed with an ultrasensitive radial diffusion assay (URDA), as described previously. The antimicrobial activity of the analogs (from 31.3 to 1000 μg/mL, 5 μL volume) was tested against several bacteria, including Bacillus subtilis KCTC1021, Streptococcus mutans KCCM40105, Aeromonas hydrophila KCTC2358, Escherichia coli D31, E. coli ML35p, Pseudomonas aeruginosa KCTC2004, Salmonella enterica KCTC2514, and Shigella sonnei KCTC2009. In addition, Cutibacterium acnes KCTC3314, Staphylococcus epidermidis KCTC1917, and Candida albicans KCTC7965 were used for the anti-acne activity test. All except C. acnes KCTC3314 were grown overnight for 18 h in tryptic soy broth (TSB; for bacteria) or Sabouraud dextrose broth (SDB; for C. albicans) at the appropriate temperature (25 °C for A. hydrophila, 37 °C for the others). C. acnes was grown for 72 h in reinforced clostridial medium (RCM) under anaerobic conditions with an anaerobic gas-generating pouch (GasPak EZ; Becton Dickinson and Company, Sparks, MD, USA) at 37 °C. […] Plates were incubated for an additional 18–24 h (72 h for C. acnes) and the clearing zone diameters were measured. […]
The minimal effective concentration (MEC; μg/mL) of the AOD analogs was calculated as the X-intercept of a plot of clearing zone diameter units against the log10 of the peptide concentration. […]

[16] = test system: V. parahaemolyticus gDNA; test: Bacterial gDNA binding (electrophoretic mobility shift); set-up: species or system Vibrio parahaemolyticus; conditions: 1 μg of analog with V. parahaemolyticus gDNA, agarose gel
Protocol: To evaluate the binding ability of the AOD analogs to intracellular components, a DNA binding assay was performed as previously described with minor modifications. The DNA-binding ability of the AOD analogs was assessed through observation of the inhibition of migration of DNA bands through agarose gels. […] HAc (0.01%) was used as a negative control.

Row | SMILES | Minimal Effective Concentration [1] [µg/mL] | Minimal Effective Concentration [2] [µg/mL] | Minimal Effective Concentration [3] [µg/mL] | Minimal Effective Concentration [4] [µg/mL] | Minimal Effective Concentration [5] [µg/mL] | electrophoretic mobility of the DNA (DNA-binding ability) [6] | Minimal Effective Concentration [7] [µg/mL] | Minimal Effective Concentration [8] [µg/mL] | inhibition of DNA amplification (PCR) [9] | Minimal Effective Concentration [10] [µg/mL] | Minimal Effective Concentration [11] [µg/mL] | Minimal Effective Concentration [12] [µg/mL] | competitive binding between DNA and DNA polymerase (electrophoretic mobility of DNA) [13] | Minimal Effective Concentration [14] [µg/mL] | antimicrobial activity (in words) [15] | electrophoretic mobility of V. parahaemolyticus gDNA [16]
1 | CC(C)C[C@@H]1NC(=O)[C@H](CCCNC(=N)N)NC(=O)[C@H](CC(C)C)NC(=O)[C@H](CCCNC(=N)N)NC(=O)[C@H](Cc2c[nH]c3ccccc23)NC(=O)[C@H](CCCNC(=N)N)NC(=O)[C@@H](N)CSSC[C@@H](C(=O)O)NC(=O)[C@H](CCCNC(=N)N)NC1=O [Analog A2] (H-CRWRLRLRC-OH; disulfide 1-9) | 3.8 | 18.0 | >125.0 | 24.0 | 20.0 | inhibited | >100.0 | 9.9 | did not inhibit | 14.0 | 13.0 | 2.0 | inhibited | 7.6 |  | 
2 | CC(=O)N[C@H]1CSSC[C@@H](C(N)=O)NC(=O)[C@H](CCCNC(=N)N)NC(=O)[C@H](CC(C)C)NC(=O)[C@H](CCCNC(=N)N)NC(=O)[C@H](CCCNC(=N)N)NC(=O)[C@H](Cc2c[nH]c3ccccc23)NC(=O)CNC(=O)[C@H](C)NC1=O [Analog A1] (Ac-CAGWRRLRC-NH2; disulfide 1-9) | 14.0 | 40.0 | >125.0 | >100.0 | 24.0 | inhibited | >100.0 | 68.0 | partially or completely inhibited | 17.0 | >100.0 | 42.0 | inhibited | 15.0 | much weaker antimicrobial activity than the other analogs | 
3 | N=C(N)NCCC[C@@H]1NC(=O)[C@H](CCCNC(=N)N)NC(=O)[C@H](Cc2c[nH]c3ccccc23)NC(=O)CNC(=O)[C@H](Cc2c[nH]c3ccccc23)NC(=O)[C@H](CCCNC(=N)N)NC(=O)[C@H](CCCNC(=N)N)NC(=O)[C@@H](N)CSSC[C@@H](C(N)=O)NC1=O [Analog A4] (H-CRRWGWRRC-NH2; disulfide 1-9) | 2.5 |  | 17.2 | 15.8 |  | inhibited | 27.1 | 10.5 | partially or completely inhibited |  | 2.2 | 5.7 | inhibited | 29.5 |  | inhibited
4 | CC(C)C[C@@H]1NC(=O)[C@H](CO)NC(=O)CNC(=O)[C@H](C)NC(=O)[C@@H](N)CSSC[C@@H](C(=O)O)NC(=O)[C@H]([C@@H](C)O)NC(=O)[C@H](CC(C)C)NC(=O)[C@H](CCCNC(=N)N)NC1=O [Analog A0] (H-CAGSLRLTC-OH; disulfide 1-9) | >100.0 | >100.0 | >125.0 | >100.0 | >100.0 |  | >100.0 | >100.0 |  | >100.0 | >100.0 | >100.0 |  | >100.0 | no activity against any of the tested strains | 
